Measured values taken from patent US20210052544A1, “METHODS OF TREATING AND/OR […] USING NABILONE” (Solantech Inc., priority 2018, published 2021).

System: bedsores
Experiment: Clinical observation of bedsores in dementia patients with agitation treated orally with nabilone
Assay type: in vivo
Procedure: Patients with dementia having agitation were treated orally at a dose of 0.5 mg nabilone twice a day initially and then going up to a total of 2 mg per day to reduce agitation. […] The number of patients where this effect was observed was six. The perceived impact on healing was significant with healing times varying between 3-6 weeks for small sores.

CCCCCCC(C)(C)c1cc(O)c2c(c1)OC(C)(C)C1CCC(=O)CC21 (stereo not shown) [nabilone]
large sores in treated patients (oral 0.5 mg twice a day up to 2 mg per day): No large sores were observed
healing of existing bedsores (patients who did have bedsores, oral 0.5 mg twice a day up to 2 mg per day): the bedsores appeared to heal faster
number and/or severity of bedsores (patients with dementia having agitation, oral 0.5 mg twice a day initially, up to total 2 mg per day, effect observed in six patients): perceived reduction in the number and/or severity of bedsores
healing times for small sores (small sores, oral 0.5 mg twice a day up to 2 mg per day): 3-6 weeks
